Data set [1] has as its system Mycobacterium tuberculosis. The experiment in a line: Antimicrobial activity against Mycobacterium tuberculosis H37Rv by Microplate Alamar blue assay. In kind it is functional. Background: The colour change of resazurin is a common sign of viable cells or microbes.
Data set [2] concerns MRC5. Nature of the data set: Cytotoxicity against human MRC5 at 300 to 400 ug/ml using crystal violet staining. In kind it is cell-based.
In data set [3] the target is T1, 3-dehydroquinate dehydratase (Mycobacterium tuberculosis, UniProt P9WPX7).
T1 sequence (P9WPX7 whole entry): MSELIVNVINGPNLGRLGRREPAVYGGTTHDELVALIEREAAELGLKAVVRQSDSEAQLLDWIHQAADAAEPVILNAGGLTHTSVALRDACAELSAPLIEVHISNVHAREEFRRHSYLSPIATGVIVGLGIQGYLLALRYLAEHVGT
Nature of the data set: Competitive inhibition of Mycobacterium tuberculosis DHQ2.

In data set [4] the target is T2, 3-dehydroquinate dehydratase (Helicobacter pylori (strain ATCC 700392 / 26695) (Campylobacterpylori), UniProt Q48255).
T2 sequence (Q48255 whole entry): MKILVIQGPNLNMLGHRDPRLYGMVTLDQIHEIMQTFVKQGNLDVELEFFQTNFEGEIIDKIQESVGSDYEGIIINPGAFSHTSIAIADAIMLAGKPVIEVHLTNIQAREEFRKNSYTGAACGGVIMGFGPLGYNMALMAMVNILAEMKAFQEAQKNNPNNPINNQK
Nature of the data set: Competitive inhibition of Helicobacter pylori DHQ2.

In data set [5] the target is T3, 3-dehydroquinate dehydratase (Mycobacterium tuberculosis) (UniProt P9WPX7).
T3 sequence (whole entry): T1 sequence (P9WPX7 whole entry)
Nature of the data set: Reversible inhibition of Mycobacterium tuberculosis DHQ2.

The target of data set [6] is T4, 3-dehydroquinate dehydratase (Helicobacter pylori (strain ATCC 700392 / 26695) (Campylobacterpylori)) (UniProt Q48255).
T4 sequence (whole entry): T2 sequence (Q48255 whole entry)
The experiment in a line: Reversible inhibition of Helicobacter pylori DHQ2.

In brackets after ≈: the same amount, converted by molar mass. Activity calls are given as the source filed them. No cut-off for these calls is given here. Bounds are passed on as bounds.

Usually MIC stands for the lowest concentration that inhibits growth of the organism. Read a low MIC as inhibition by little substance. For `CCOC(=O)[C@]1(O)C=C(OCc2cc3ccc(Cl)cc3s2)[C@@H](O)[C@H](O)C1`, the MIC in data set [1] came out at 40 µg/mL (≈ 100 µM). For the same molecule, in data set [2], the Activity entry was “Non-toxic”.

`CCOC(=O)[C@]1(O)C=C(OCc2ccc3ccccc3c2)[C@@H](O)[C@H](O)C1`: the MIC in data set [1] was found to be 20 µg/mL (≈ 55.8 µM). For the same molecule, in data set [2], the Activity result is “Non-toxic”.

The term Ki denotes a measure of affinity in units of concentration, obtained from inhibition or displacement. Read a low Ki as higher affinity. For the molecule `O=C(O)[C@@]1(O)C[C@@H](O)[C@H](O)C(OCc2cccs2)=C1Cc1cccs1`, the Ki in data set [3] is 5100 nM; in data set [4], 14600 nM. Also, the inhibition result in data set [5] and in data set [6] was “Active” each time.

As to `CCCOC(=O)[C@]1(O)C=C(OCc2ccc3ccccc3c2)[C@@H](O)[C@H](O)C1`, in data set [1], inhibition of growth (MIC) required 10 µg/mL (≈ 26.9 µM). In addition, the Activity entry in data set [2] is listed as “Non-toxic”.

In data set [1], `CCCC(=O)O[C@@H]1C(OCc2ccc3ccccc3c2)=C[C@@](O)(C(=O)OCC)C[C@H]1OC(=O)CCC` came in with an MIC of 5 µg/mL (≈ 10 µM). In addition, the Activity result in data set [2] is recorded as “Non-toxic”.

`O=C(O)[C@]1(O)C=C(/C=C/COc2ccc(F)cc2)[C@@H](O)[C@H](O)C1` came in with a Ki in data set [3] of 120 nM.

Consider `O=C(O)[C@]1(O)C=C(c2cccs2)[C@@H](O)[C@H](O)C1`, for which the Ki in data set [3] turned out to be 250 nM.

Molecule `CCCOC(=O)[C@]1(O)C=C(OCc2ccc3sccc3c2)[C@@H](OC(=O)CCC)[C@H](OC(=O)CCC)C1` registered an MIC in data set [1] of 20 µg/mL (≈ 38.6 µM). The Activity result in data set [2] is “Non-toxic”.

`CCCOC(=O)[C@]1(O)C=C(OCc2ccc3ccccc3c2)[C@@H](OC(=O)CCC)[C@H](OC(=O)CCC)C1`: the MIC in data set [1] worked out at 5 µg/mL (≈ 9.75 µM). Besides, the Activity entry in data set [2] is reported as “Non-toxic”.

In the case of `O=C(O)[C@@]1(O)C[C@@H](O)[C@H](O)C(OCc2cccs2)=C1Cc1ccc2sccc2c1`, the results for the Ki in data set [3] and in data set [4] were 59 nM and 100 nM, respectively. In addition, the inhibition entry in data set [5] and in data set [6] was “Active” each time.

For `CCOC(=O)[C@@]1(O)C[C@@H](O)[C@H](O)C(OCc2ccc3sccc3c2)=C1Cc1ccc2sccc2c1`, the MIC in data set [1] was 160 µg/mL (≈ 313 µM). Also, the Activity result in data set [2] is “Non-toxic”.

`COC(=O)[C@@]1(O)C[C@@H](O)[C@H](O)C(OCc2cc3cc(C)ccc3s2)=C1Cc1cc2cc(C)ccc2s1`: the MIC in data set [1] is > 160 µg/mL. Further, the Activity result in data set [2] was “Non-toxic”.

Molecule `CCCOC(=O)[C@]1(O)C=C(OCc2cc3ccc(Cl)cc3s2)[C@@H](O)[C@H](O)C1` came in with an MIC in data set [1] of 40 µg/mL (≈ 96.9 µM). Besides, the Activity entry in data set [2] is “Non-toxic”.

With `COC(=O)[C@]1(O)C=C(OCc2cc3ccc(Cl)cc3s2)[C@@H](O)[C@H](O)C1`, the MIC in data set [1] was > 160 µg/mL. Further, the Activity entry in data set [2] is reported as “Non-toxic”.

Take `CCCOC(=O)[C@]1(O)C=C(OCc2ccc3sccc3c2)[C@@H](O)[C@H](O)C1`: in data set [1], the MIC was 20 µg/mL (≈ 52.8 µM). For the same molecule, the Activity result in data set [2] is recorded as “Non-toxic”.

For `O=C(O)[C@]1(O)C=C(OCc2ccc3ccccc3c2)[C@@H](O)[C@H](O)C1`, the Ki was determined as 35 nM in data set [3] and 310 nM in data set [4]. Besides, the inhibition result in data set [5] and in data set [6] was “Active” throughout.

`O=C(O)[C@@]1(O)C[C@@H](O)[C@H](O)C(OCc2cc3ccccc3s2)=C1Cc1cccs1`: the affinity in data set [4], expressed as Ki, was 280 nM. Further, the inhibition result in data set [5] and in data set [6] was “Active” in each case.

Take `O=C(O)[C@]1(O)C=C(OCc2cc3ccc(Cl)cc3s2)[C@@H](O)[C@H](O)C1`: the Ki worked out at 35 nM in data set [3] and 205 nM in data set [4]. In addition, the inhibition result in data set [5] and in data set [6] was “Active” throughout.

As to `Cc1ccc2sc(COC3=C(Cc4cc5cc(C)ccc5s4)[C@@](O)(C(=O)O)C[C@@H](O)[C@@H]3O)cc2c1`, in data set [4], the inhibitory constant (Ki) came out at 50 nM. Moreover, the inhibition result in data set [5] and in data set [6] was “Active” each time.

Regarding `Cc1ccc2sc(COC3=C[C@@](O)(C(=O)O)C[C@@H](O)[C@@H]3O)cc2c1`, the inhibition result in data set [5] and in data set [6] was “Active” each time.

For the molecule `O=C(O)[C@@]1(O)C[C@@H](O)[C@H](O)C(OCc2cc3ccc(Cl)cc3s2)=C1Cc1cc2ccc(Cl)cc2s1`, the Ki in data set [3] was determined as 1100 nM; in data set [4] it was 6700 nM. Further, the inhibition entry in data set [5] and in data set [6] was “Active” each time.

Take `C=CCC1=C(OCc2cc3ccccc3s2)[C@@H](O)[C@H](O)C[C@]1(O)C(=O)O`: the inhibition result in data set [5] and in data set [6] was “Active” throughout.

Regarding `Cc1ccc2sc(CC3=C(OCc4cccs4)[C@@H](O)[C@H](O)C[C@]3(O)C(=O)O)cc2c1`, the Ki amounted to 870 nM in data set [3] and 279 nM in data set [4]. The inhibition result in data set [5] and in data set [6] was “Active” throughout.

Regarding `O=C(O)[C@@]1(O)C[C@@H](O)[C@H](O)C(OCc2cc3ccccc3s2)=C1Cc1cc2ccccc2s1`, the figures for the inhibition constant (Ki) in data set [3] and in data set [4] were 40 nM and 97 nM, respectively. Moreover, the inhibition entry in data set [5] and in data set [6] was “Active” in each case.

As for `CCOC(=O)[C@]1(O)C=C(OCc2ccc3sccc3c2)[C@@H](O)[C@H](O)C1`, in data set [1], the MIC worked out at 40 µg/mL (≈ 110 µM). Moreover, the Activity entry in data set [2] is “Non-toxic”.

As for `CCOC(=O)[C@]1(O)C=C(OCc2cc3ccccc3s2)[C@@H](O)[C@H](O)C1`, in data set [1], the MIC was 40 µg/mL (≈ 110 µM). In data set [2], the Activity entry is “Non-toxic”.

In data set [1], `CCCOC(=O)[C@]1(O)C=C(OCc2ccc3sccc3c2)[C@@H](OC(=O)CCC)[C@H](O)C1` came in with an MIC of 5 µg/mL (≈ 11.1 µM). Also, the Activity entry in data set [2] is recorded as “Non-toxic”.

`COC(=O)[C@]1(O)C=C(OCc2ccc3sccc3c2)[C@@H](O)[C@H](O)C1`: the minimum inhibitory concentration (MIC) in data set [1] was > 160 µg/mL. In data set [2], the Activity result is “Non-toxic”.

Take `CCCC(=O)O[C@@H]1C(OCc2ccc3sccc3c2)=C[C@@](O)(C(=O)OCC)C[C@H]1OC(=O)CCC`: the minimal inhibitory concentration (MIC) in data set [1] was 5 µg/mL (≈ 9.91 µM). The Activity result in data set [2] was “Non-toxic”.

For `COC(=O)[C@]1(O)C=C(OCc2cc3ccccc3s2)[C@@H](O)[C@H](O)C1`, in data set [1], the MIC was > 160 µg/mL. For the same molecule, in data set [2], the Activity result is given as “Non-toxic”.

`CCCOC(=O)[C@]1(O)C=C(OCc2cc3ccccc3s2)[C@@H](O)[C@H](O)C1` came in with an MIC in data set [1] of 5 µg/mL (≈ 13.2 µM). For the same molecule, the Activity result in data set [2] is reported as “Non-toxic”.

In data set [3], `O=C(O)[C@]1(O)C=C(OCc2cccs2)[C@@H](O)[C@H](O)C1` displayed a Ki of 235 nM. Further, the inhibition result in data set [5] and in data set [6] was “Active” each time.

In the case of `CCOC(=O)[C@@]1(O)C[C@@H](O)[C@H](O)C(OCc2cc3ccc(Cl)cc3s2)=C1Cc1cc2ccc(Cl)cc2s1`, the MIC in data set [1] is > 160 µg/mL. The Activity result in data set [2] is “Non-toxic”.

The molecule `COC(=O)[C@@]1(O)C[C@@H](O)[C@H](O)C(OCc2cc3ccc(Cl)cc3s2)=C1Cc1cc2ccc(Cl)cc2s1` registered a minimal inhibitory concentration (MIC) in data set [1] of 80 µg/mL (≈ 141 µM). In addition, the Activity entry in data set [2] is “Non-toxic”.

As for `O=C(O)[C@]1(O)C=C(OCc2ccc3sccc3c2)[C@@H](O)[C@H](O)C1`, the inhibition result in data set [5] and in data set [6] was “Active” each time.

With `O=C(O)[C@]1(O)C=C(OCc2cc3ccccc3s2)[C@@H](O)[C@H](O)C1`, in data set [3], the Ki is 28 nM. The inhibition entry in data set [5] and in data set [6] was “Active” in each case.

In turn, `CCCC(=O)O[C@@H]1C(OCc2ccc3ccccc3c2)=C[C@@](O)(C(=O)OCC)C[C@H]1O` displayed an MIC in data set [1] of 10 µg/mL (≈ 23.3 µM). Further, the Activity result in data set [2] is “Non-toxic”.

For the molecule `O=C(O)[C@@]1(O)C[C@@H](O)[C@H](O)C(OCc2ccc3ccccc3c2)=C1Cc1ccc2ccccc2c1`, the figures for the Ki in data set [3] and in data set [4] were 6000 nM and 260 nM, respectively. In addition, the inhibition entry in data set [5] and in data set [6] was “Active” throughout.

Take `COC(=O)[C@]1(O)C=C(OCc2cc3cc(C)ccc3s2)[C@@H](O)[C@H](O)C1`: the MIC in data set [1] was > 160 µg/mL. Besides, in data set [2], the Activity entry is “Non-toxic”.

On to `O=C(O)[C@@]1(O)C[C@@H](O)[C@H](O)C(OCc2ccc3sccc3c2)=C1Cc1ccc2sccc2c1`, for which the Ki in data set [4] was found to be 140 nM. Further, the inhibition entry in data set [5] and in data set [6] was “Active” throughout.
